Legend:
[1] = test system: bone marrow-resident progenitor cells (mast cell and basophil development); assay: Murine mast cell and basophil developmental assay: BM progenitor cells cultured with IL-3; type: cell-based, mouse; settings: BM cells + IL-3 10 ng/mL, 30 μg/mL MZ
Procedure: FIGS. 6A-6B. Bone marrow-resident progenitor cells were cultured in media, media treated with IL-3 (10 ng/ml), media treated with IL-3 and compound 8 (25 ng/ml) (FIG. 6A) or, media treated with IL-3 and compound 16 (25, 50, or 75 ng/ml) (FIG. 6B). On day 7 post-culture mast cells were identified by flow cytometric analysis. Results are representative of 2 independent experiments with at least 4 technical replicated per experiment. Statistical analysis was performed using a Student's t-test. (*,p<0.05) (***,p<0.001).
BM cells were isolated from the femur of WT mice and cultured in the presence of 10 ng/mL of IL-3 and vehicle (1:10 DMSO to RPMI complete media) or 30 μg/mL MZ. Fresh IL-3 with either vehicle or MZ were added daily, and mast cell and basophil populations were evaluated on day 7 post-culture.
Further, it is illustrated that genetically editing Car1 in stem cells via CRISPR/Cas9 technology decreases their capacity to develop into mature mast cells. […] However, whether inhibitors that selectively target Car1 can be used to inhibit mast cell development was unknown. […] Therefore, it was sought to be determined whether compound 8 and/or compound 16 could inhibit mast cell development from progenitor cell populations. To test this, the mast cell developmental assay was employed and bone marrow-resident progenitor cells were treated with IL-3 to promote mast cell development.

[2] = test system: Aspergillus fumigatus-induced allergic airway inflammation; assay: Aspergillus fumigatus extract-induced allergic asthma; type: in vivo, mouse; settings: mice challenged intranasally with A. fumigatus extract for 3 weeks, MZ (FIG. 5)
Procedure: Aspergillus-induced allergic asthma. Mice were challenged with Aspergillus fumigatus allergic extract as previously described (Mathias, C. B., et al., J Immunol 182, 2416-2424 (2009)). Briefly, mice were challenged (intranasally) 3 times a week for 3 weeks with 50 μl of aqueous Aspergillus fumigatus Allergenic Extract (Greer laboratories: item # M3). After 3 weeks mice were sacrificed and BAL and lungs were processed as previously described (Espinosa, V., et al., PLOS Pathog 10, e1003940 (2014)).

[3] = test system: IL-3C-induced intestinal mast cell responses and peripheral basophilia; assay: IL-3C treatment of Rag1-deficient mice; type: in vivo, mouse; settings: MZ 2 mg every day (FIG. 3G)
Procedure: Methods for maintenance, recovery, infection and isolation of Trichinella larvae were performed as previously described (Urban, et al., 2000. J Immunol 164:2046-2052). Mice were infected with 500 Trichinella muscle larvae by oral gavage and were treated with vehicle (1:5 DMSO to PBS) or 2-3 mg of MZ i.p. daily; mice were sacrificed between 10-11 days post-infection. At necropsy, single cell suspensions of mLNs and spleens were prepared as previously described (Giacomin, et al., 2012. Journal of immunology (Baltimore, Md.: 1950) 189:4371-4378) for basophil and mast cell analysis. Blood was collected and serum was isolated for analysis of Mcpt1 and IgE. Sections (1 cm) of small intestine (jejunum) were collected for real-time PCR and histological analysis. Remaining sections of small intestine were slit lengthwise, rinsed in PBS, and placed in HBSS for 4 hours at 37° C. and adult worms were quantified by microscopic analysis as previously described (Urban, et al., 2000. J Immunol 164:2046-2052). Rag1^−/− mice were injected (i.p.) with a combination of recombinant IL-3 (1 μg) and α-IL-3 antibody (0.5 μg) (BioLegend: clone MP2-8F8) in 200 μl PBS every 3 days for 7-10 days. IL-3C-treated mice were treated with MZ (2 mg) or vehicle (DMSO) every day.

[4] = test system: food allergy-induced mast cell responses; assay: Food allergy-like disease (OVA sensitization and challenge); type: in vivo, mouse; settings: OVA sensitized and challenged mice
Procedure: RNA from sections of small intestine was isolated by homogenization in TRIzol (Invitrogen) followed by phenol-chloroform extraction and isopropanol precipitation. cDNA was generated per standard protocol with Superscript reverse transcriptase (Invitrogen) and used as input for real-time PCR. Real-time data were analyzed using the ΔΔCT method using SYBR Green chemistry (Applied Biosystems) with β-actin serving as the endogenous housekeeping gene. All reactions were run on an ABI 7500 Fast Real-Time PCR System (Applied Biosystems). Samples were normalized to naïve controls. The following QuantiTech primer assays from Qiagen were used: Mcpt1 (QT00157864), IL-4 (QT00160678), IL-9 (QT00107555), Arg1 (QT00134288), […] (QT00254359), Car1 (QT01058113) and Car2 (QT00494592). Single cell suspensions were made from mesenteric, or skin draining lymph nodes. Lymph node cells were cultured in RPMI complete medium and treated with and without anti-CD3 (BD Pharmingen: clone 145-2C11) and anti-CD28 antibodies (BD Pharmingen: clone 37.51) for 72 hours. Standard sandwich ELISA (eBioscience) was performed to measure IL-4 (clones 11B11 and BVD6-24G2), IL-5 (clones TRFK5 and TRFK4) and IL-13 (clones eBio13A and eBio1316H) levels in the cell-free supernatants. Serum quantities of Mcpt1 and IgE were measured by commercial sandwich ELISA kits (BD Biosciences, eBioscience). […]

[5] = test system: human CD34+ progenitor cells (mast cell development); assay: Human mast cell cultures from blood CD34+ progenitor cells; type: cell-based; settings: human CD34+ cells with SCF, consistent across 5 donors
Description: Blood from healthy human donors was obtained from the New York Blood Center under protocols approved by the Rutgers Institutional Review Boards (IRB). Peripheral blood cells were isolated using a Ficoll gradient. CD34^+ cells were purified using a CD34 MicroBead isolation kit according to the manufacturer's protocol (Miltenyi Biotec, 130-048-702). 25-50×10^3 CD34^+ cells were placed in methocult ([…]) supplemented with stem cell factor (SCF), IL-6 and IL-3 as described previously (Saito, et al., 2006. Nat Protoc 1:2178-2183). Mast cell populations were evaluated on day 14 post-culture.

With CC(=O)/N=c1/sc(S(N)(=O)=O)nn1C [MZ, methazolamide] the basophil numbers ([1]; day 7) was “decreased”, the percentages of basophils ([1]; day 7 (FIG. 1F)) was “significantly increased” and the “mast cell populations compared to controls” value ([1]; day 7 post-culture (FIG. 1E)) was “significantly reduced”. The “eosinophilic airway inflammation (eosinophils in BAL and lung)” value [2] was “significantly reduced”, the “pulmonary mast cell responses” value [2] was “significantly reduced” and the IL-3C-induced basophilia [3] was “no effect”. For the same molecule, the “intestinal mast cell responses” value [3] was “significantly reduced”, the “mast cell responses (serum Mcpt1, intestinal mcpt1 expression, intestinal mast cells by histology)” value ([4]; 2-3 mg MZ i.p. daily (FIG. 4A-D)) was “significantly decreased” and the “serum IgE levels” value ([4]; 2-3 mg MZ i.p. daily (FIG. 4E)) was “significantly increased”. For the same molecule, the “percentages of mast cells” value ([5]; IL-6, IL-3, day 14 (FIGS. 4L-4M)) was “significantly reduced” and the “total numbers of mast cells” value ([5]; IL-6, IL-3, day 14 (FIGS. 4L-4N)) was “significantly reduced”.
